From patent publication US5914319A, “Antithrombotic agents” (Eli Lilly and Company, priority 1995, dated 1999)
Where a name gives a salt, the structure may show the parent alone.

What was measured:
Assay type in all cases: biochemical
Human plasma [1] = assay: Human plasma anticoagulation, prothrombin time (PT); conditions: concentration required to double the PT, linear extrapolation
Experimental: (§1) Dog plasma and rat plasma is obtained from conscious mixed-breed hounds (either sex, Hazelton-LRE, Kalamazoo, Mich., U.S.A.) or from anesthetized male Sprague-Dawley rats (Harlan Sprague-Dawley, Inc., Indianapolis, Ind., U.S.A.) by venipuncture into 3.8 percent citrate. Fibrinogen is prepared from in-date ACD human blood as the fraction I-2 according to previous procedures and specifications. […] Human fibrinogen is also purchased as 98 percent pure/plasmin free from American Diagnostica, Greenwich, Conn. Coagulation reagents ACTIN, Thromboplastin, and Human plasma are from Baxter Healthcare Corp., Dade Division, Miami, Fla. Bovine thrombin from Parke-Davis ([…], Mich.) is used for coagulation assays in plasma.
(§2) Coagulation assay procedures are as previously described. […] A CoAScreener coagulation instrument (American LABor, Inc.) is used for all coagulation assay measurements. The prothrombin time (PT) is measured by adding 0.05 mL saline and 0.05 mL Thromboplastin-C reagent to 0.05 mL test plasma. The activated partial thromboplastin time (APTT) is measured by incubation of 0.05 mL test plasma with 0.05 mL Actin reagent for 120 seconds followed by 0.05 mL CaCl2 (0.02M). The thrombin time (TT) is measured by adding 0.05 mL saline and 0.05 mL thrombin (10 NIH units/mL) to 0.05 mL test plasma. The compounds of Formula I are added to human or animal plasma over a wide range of concentrations to determine prolongation effects on the APTT, PT, and TT assays. Linear extrapolations are performed to estimate the concentrations required to double the clotting time for each assay.

Human plasma [2] = assay: Human plasma anticoagulation, thrombin time (TT); conditions: concentration required to double the thrombin time, linear extrapolation
Experimental: as §1, §2

Human plasma [3] = assay: Human plasma anticoagulation, activated partial thromboplastin time (APTT); conditions: concentration required to double the APTT, linear extrapolation
Experimental: as §1, §2

Row | Molecule | Human Plasma Anticoagulation 2× Clotting time (ng/mL) PT (Human plasma [1]) | Human Plasma Anticoagulation 2× Clotting time (ng/mL) TT (Human plasma [2]) | Human Plasma Anticoagulation 2× Clotting time (ng/mL) APTT (Human plasma [3])
1 | CCS(=O)(=O)N[C@H](Cc1ccccc1)C(=O)N1CCC[C@H]1C(=O)NCc1ccc(NC(=N)N)cc1 [Example 34, EtSO2 -D-Phe-Pro-p-NHCH2 C6 H4 NHC(NH)NH2.HCl] | 5,500 ng/mL | 530 ng/mL | 4,900 ng/mL
2 | Cl.N=C(N)c1ccc(CNC(=O)[C@@H]2CCCN2C(=O)[C@@H](CC2CCCCC2)NCC(=O)O)nn1 [Example 69, HO2 CCH2 -D-Cha-Pro-3-NHCH2 -6-amidinopyridazine.HCl] | 220 ng/mL | 5. ng/mL | 110 ng/mL
3 | Cl.N=C(N)c1ccc(CNC(=O)CN(CCc2ccccc2)C(=O)CNCC(=O)O)cc1 [Example 89, HOOCCH2 -Gly-N-C6 H5 CH2 CH2 Gly-p-NHCH2 C6 H4 C(NH)NH2.HCl] | 37,000 ng/mL | 570 ng/mL | 51,000 ng/mL
4 | Cl.N=C(N)c1cc(F)c(CNC(=O)[C@@H]2CCCN2C(=O)[C@@H](CC2CCCCC2)NCC(=O)O)c(F)c1 [Example 72, HO2 CCH2 -D-Cha-Pro-4-NHCH2 -3,5-F2 -benzamidine.HCl] | 160 ng/mL | 1 ng/mL | 160 ng/mL
5 | NCc1ccc(CNC(=O)[C@@H]2CCCN2C(=O)[C@@H](CC2CCCCC2)NCC(=O)O)cc1 [Example 78, HO2 CCH2 -D-Cha-Pro-4-NHCH2 C6 H4 CH2 NH2.HCl] | 760 ng/mL | 46 ng/mL | 430 ng/mL
6 | CCS(=O)(=O)N[C@H](CC1CCCCC1)C(=O)N1CCC[C@H]1C(=O)NCc1ccc(CN)cc1 [Example 81, EtSO2 -D-Cha-Pro-4-NHCH2 C6 H4 CH2 NH2.HCl] | 2,700 ng/mL | 110 ng/mL | 1,500 ng/mL
7 | O=C(O)CN[C@H](CC1CCCCC1)C(=O)N1CCC[C@H]1C(=O)NCC1CCNCC1 [Example 53, HO2 CCH2 -D-Cha-Pro-4-NHCH2 -piperidine.HCl] | 34,500 ng/mL | 1,400 ng/mL | 33,800 ng/mL
8 | 1-Piq-Pro-p-NHCH2 C6 H4 C(NH)NH2.2HCl [Example 18] | 170 ng/mL | 7 ng/mL | 79 ng/mL
9 | N=C(N)c1ccc(CNC(=O)[C@@H]2CCCN2C(=O)[C@@H](CC2CCCCC2)NCC(=O)O)nc1 [Example 66, HO2 CCH2 -D-Cha-Pro-2-NHCH2 -5-amidinopyridine.HCl] | 270 ng/mL | 7.9 ng/mL | 180 ng/mL
10 | Cl.N=C(N)C1=CNC(CNC(=O)[C@@H]2CCCN2C(=O)[C@@H](CC2CCCCC2)NCC(=O)O)CC1 (stereo partly drawn) [Example 68, HO2 CCH2 -D-Cha-Pro-2-NHCH2 -5-amidino-5,6-dehydro-piperidine.HCl] | 190 ng/mL | 4. ng/mL | 49 ng/mL
11 | D-hPro-Pro-p-NHCH2 C6 H4 C(NH)NH2.HCl [Example 17] | 400 ng/mL | 26 ng/mL | 370 ng/mL
12 | CCC(CC)C(=O)N[C@@H](CCC(=O)O)C(=O)N1CCC[C@H]1C(=O)NCc1ccc(C(=N)N)cc1 [Example 90, (C2 H5)2 CHCO-Glu-Pro-p-NHCH2 C6 H4 C(NH)NH2.HCl] | 14,600 ng/mL | 330 ng/mL | 14,500 ng/mL
13 | N=C(N)c1ccc(CCNC(=O)[C@@H]2CCCN2C(=O)[C@@H]2NCC[C@@H]3CCCC[C@@H]32)cc1 [Example 28, 1-Piq-Pro-p-NHCH2 CH2 --C6 H4 C(=NH)NH2.2HCl] | 8,300 ng/mL | 520 ng/mL | 8,100 ng/mL
14 | Cl.Cl.N=C(N)c1ccc(CNC(=O)[C@@H]2CCCN2C(=O)[C@H](N)CC2CCCCC2)cc1 [Example 51, D-Cha-Pro-p-NHCH2 C6 H4 C(NH)NH2.2HCl] | 110 ng/mL | 2 ng/mL | 48 ng/mL
15 | Cl.N=C(N)c1ccc(CNC(=O)[C@@H]2CCCN2C(=O)[C@@H](CC2CCCCC2)NCC(=O)O)c(F)c1 [Example 71, HO2 CCH2 -D-Cha-Pro-4-NHCH2 -3-F-benzamidine.HCl] | 150 ng/mL | 1 ng/mL | 89 ng/mL
16 | N=C(N)N1CCC(CCNC(=O)[C@@H]2CCCN2C(=O)[C@@H](CC2CCCCC2)NCC(=O)O)CC1 [Example 57, HO2 CCH2 -D-Cha-Pro-4-NHCH2 CH2 -1-amidinopiperidine.HCl] | 340 ng/mL | 14 ng/mL | 360 ng/mL
17 | CCS(=O)(=O)N[C@H](Cc1ccccc1)C(=O)N1CCC[C@H]1C(=O)NCCCc1cccc(C(=N)N)c1 [Example 31, EtSO2 -D-Phe-Pro-m-NHCH2 CH2 CH2 --C6 H4 C(=NH)NH2.HCl] | 30,000 ng/mL | 10,800 ng/mL | 34,500 ng/mL
18 | CCS(=O)(=O)N[C@H](Cc1ccccc1)C(=O)N1CCC[C@H]1C(=O)NCc1cccc(C(=N)N)c1 [Example 24, EtSO2 -D-Phe-Pro-m-NHCH2 --C6 H4 C(=NH)NH2.HCl] | 25,000 ng/mL | 1,000 ng/mL | 25,900 ng/mL
19 | Cl.N=C(N)N1CCC(CNC(=O)[C@@H]2CCCN2C(=O)[C@@H](CC2CCCCC2)NCC(=O)O)CC1 [Example 56, HO2 CCH2 -D-Cha-Pro-4-NHCH2 -1-amidinopiperidine.HCl] | 200 ng/mL | 5 ng/mL | 160 ng/mL
20 | Cl.N=C(N)N1CC=C(CNC(=O)[C@@H]2CCCN2C(=O)[C@@H](CC2CCCCC2)NCC(=O)O)CC1 [Example 70, HO2 CCH2 -D-Cha-Pro-4-NHCH2 -1-amidino-3,4-dehydro-piperidine.HCl] | 180 ng/mL | 2 ng/mL | 160 ng/mL
21 | O=C(O)CN[C@H](CC1CCCCC1)C(=O)N1CCC[C@H]1C(=O)NCCCC1CCNCC1 [Example 55, HO2 CCH2 -D-Cha-Pro-4-NHCH2 CH2 CH2 -piperidine.HCl] | > 91,000 ng/mL | 55,800 ng/mL | > 91,000 ng/mL
